Test results taken from ChEMBL document CHEMBL5584313, “Design and Synthesis of 7-Oxabicyclo[2.2.1]heptane-2,3-dicarboxylic Acid Derivatives as PP5 Inhibitors To Reverse Temozolomide Resistance in Glioblastoma Multiforme” (J Med Chem, 2024).
pIC50: −log10 of the molar value. Calls of active or inactive are those of the source. No cut-off for these calls is given here.

Columns and labels:
[1] = Inhibition of PP2A (unknown origin)
[2] = Aqueous stability of compound assessed as compound remaining measured at 240 mins by HPLC assay; assay type: physicochemical; settings: aqueous solution, read-out: Stability
U-87 MG [3] = assay: Cytotoxicity against human U-87 MG cells incubated for 48 hrs by CCK8 assay; assay type: functional, cell-based, U-87MG ATCC
U-87 MG [4] = assay: Induction of apoptosis in human U-87 MG cells assessed as G0/G1 phase cells at 25 uM incubated for 24 hrs by propidium iodide staining based flow cytometry analysis (reference value: 58.8%); assay type: functional, U-87MG ATCC
U-87 MG [5] = assay: Induction of apoptosis in human U-87 MG cells assessed as S phase cells at 25 uM incubated for 24 hrs by propidium iodide staining based flow cytometry analysis (reference value: 29.4%); assay type: functional, U-87MG ATCC
U-87 MG [6] = assay: Induction of apoptosis in human U-87 MG cells assessed as G2/M phase cells at 25 uM incubated for 24 hrs by propidium iodide staining based flow cytometry analysis (reference value: 11.9%); assay type: functional, U-87MG ATCC
U-87 MG [7] = assay: Induction of apoptosis in human U-87 MG cells assessed as G0/G1 phase cells at 25 uM incubated for 24 hrs in presence of TMZ by propidium iodide staining based flow cytometry analysis (reference value: 58.8%); assay type: functional, U-87MG ATCC
U-87 MG [8] = assay: Induction of apoptosis in human U-87 MG cells assessed as S phase cells at 25 uM incubated for 24 hrs in presence of TMZ by propidium iodide staining based flow cytometry analysis (reference value: 29.4%); assay type: functional, U-87MG ATCC
U-87 MG [9] = assay: Induction of apoptosis in human U-87 MG cells assessed as G2/M phase cells at 25 uM incubated for 24 hrs in presence of TMZ by propidium iodide staining based flow cytometry analysis (reference value: 11.9%); assay type: functional, U-87MG ATCC
U-87 MG [10] = assay: Antitumor activity against human U-87 MG cells xenografted in BALB/c nude mouse assessed as tumor growth retardation at 40 mg/kg, po administered every other day for 18 days; assay type: functional, organism-based; settings: U-87MG ATCC, time 18.0 day

O=C1OC(=O)C2C3CCC(O3)C12 (configuration not stated)
pIC50 [1]: 5.52

C=C1[C@@H](O)[C@@H]2O[C@]3(CC[C@H](/C=C/[C@@H](C)[C@@H]4CC(C)=C[C@@]5(O[C@H](C[C@@](C)(O)C(=O)O)CC[C@H]5O)O4)O3)CC[C@H]2O[C@@H]1[C@@H](O)C[C@H](C)[C@H]1O[C@@]2(CCCCO2)CC[C@H]1C [OKADAIC ACID]
pIC50 [1]: 10.00

C/C=C1/C(=O)N[C@@H](C(=O)O)[C@H](C)C(=O)N[C@@H](CCCNC(=N)N)C(=O)N[C@@H](/C=C/C(C)=C/[C@H](C)[C@H](Cc2ccccc2)OC)[C@H](C)C(=O)N[C@@H](C(=O)O)CCC(=O)N1C [NODULARIN]
pIC50 [1]: 9.52

O=C(O)[C@@H]1[C@H](C(=O)N2CCN(c3ccccc3)CC2)[C@H]2CC[C@@H]1O2
remaining at 4 h [2]: 93%

O=C(O)[C@@H]1[C@H](C(=O)NC2CCCC2)[C@H]2CC[C@@H]1O2
remaining at 4 h [2]: 72.2%

Cn1nnc2c(C(N)=O)ncn2c1=O [TEMOZOLOMIDE]
pIC50 (U-87 MG [3]): < 3.70
Activity (U-87 MG [4]): 54.5%
Activity (U-87 MG [5]): 31.5%
Activity (U-87 MG [6]): 13.5%
Activity (U-87 MG [7]): 37.7%
Activity (U-87 MG [8]): 69.6%
Activity (U-87 MG [9]): 7.4%
Activity (U-87 MG [10]): Active

O=C(O)[C@@H]1[C@H](C(=O)N2CCc3ccccc32)[C@H]2CC[C@@H]1O2
remaining at 4 h [2]: 52.8%

C[C@@](O)(/C=C/[C@H]1CC=CC(=O)O1)[C@@H](C[C@@H](O)\C=C/C=C\C=C\CO)OP(=O)(O)O [FOSTRIECIN]
pIC50 [1]: 8.82

O=C(NC1CCCCC1)[C@@H]1[C@H](C(=O)O)[C@H]2CC[C@@H]1O2
remaining at 4 h [2]: 73.2%

O=C(O)[C@@H]1[C@H](C(=O)N2CC=CC2)[C@H]2CC[C@@H]1O2
remaining at 4 h [2]: 35.7%
